Test results taken from patent EP4813463A2, “TYK2 INHIBITORS AND COMPOSITIONS AND METHODS THEREOF” (Lynk Pharmaceuticals Co. Ltd., priority 2023, dated 2024).
In brackets after ≈: the same amount, converted by molar mass. Read-outs that look alike come from different tables or passages of the source.

Columns and labels:
[1] = system: Ba/F3-FL-TYK2-P760L cells; assay: Anti-proliferative assay in engineered Ba/F3 cells (Cell-Titer Glo, 72 h); assay type: cell-based; conditions: Mus musculus, BaF3, 72 h, 72 h compound treatment, concentration that causes 50% growth inhibition, read-out: Baf3-FL-T2P760L
Procedure, shortened: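 IC50 from luminescent ATP viability after 72 h compound exposure (37 °C, 5% CO2), % inhibition normalised to DMSO-treated cells minus medium blank. IL-3-free Ba/F3-FL-TYK2-P760L (Tel-JAK fusion) cells in 10% FBS RPMI-1640 received 9 three-fold doses, top 20 µM, 0.1% DMSO.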

[2] = biological target: T1, TYK2-JH2 domain (Homo sapiens, UniProt P29597); assay: Binding activity test for JH2 domain of TYK2 (Tb-antibody/tracer FRET); conditions: for IC50: JH2 domain enzyme, 60 min at 25°C, then 4°C overnight, read-out: TYK2 JH2 Binding IC50; for JAK1/TYK2 selectivity: ratio of JAK1 JH2 to TYK2 JH2 binding IC50
T1 construct: JAK1-JH2 domain or TYK2-JH2 domain enzyme in assay buffer
T1 sequence (P29597 589-875 limits assumed): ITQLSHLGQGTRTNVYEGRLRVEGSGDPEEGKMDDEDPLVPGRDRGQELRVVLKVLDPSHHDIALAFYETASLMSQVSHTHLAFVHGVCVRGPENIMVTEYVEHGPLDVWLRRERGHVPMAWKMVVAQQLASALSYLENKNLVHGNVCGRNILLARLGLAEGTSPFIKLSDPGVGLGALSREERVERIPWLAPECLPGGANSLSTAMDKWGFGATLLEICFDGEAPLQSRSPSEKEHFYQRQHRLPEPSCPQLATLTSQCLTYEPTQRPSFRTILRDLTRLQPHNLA
Procedure, shortened: (§1)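 IC50 values (nM) come from TR-FRET readings taken after a 25°C incubation followed by overnight at 4°C. Each well held JH2 domain protein, Tb-antibody, tracer and test compound titrated in 11 threefold steps, with DMSO high and low controls.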

[3] = Caco-2 cell permeability; assay type: in vitro ADME; conditions: human, Caco-2, 10.0 µM, no p-gp inhibitor; for Papp A→B at 90 min, 10 µM: A to B; for Papp B→A at 90 min, 10 µM: B to A; for efflux ratio at 90 min, 10 µM: read-out: Efflux Ratio: Papp(B-A)/Papp(A-B)
Description: Compounds permeability was evaluated using Caco-2 cell lines. HBSS buffer was used as transfer buffer. Appropriate dosing and receiver solutions were applied to the donor and receiver chambers to initiate the transport assay in apical to basolateral (A to B) or basolateral to apical (B to A) directions. Compounds were tested at 10.0 µM in the absence of p-gp inhibitor bidirectionally in duplicates. After incubation at 37°C for 90 mins, donor and receiver samples were analyzed by LC-MS/MS. The intestinal absorption potential was assessed using Papp value and efflux ratio.

[4] = biological target: T2, JAK1-JH2 domain (Homo sapiens, UniProt P23458); assay: Binding activity test for JH2 domain of JAK1 (Tb-antibody/tracer FRET); conditions: JH2 domain enzyme; 60 min at 25°C, then 4°C overnight; read-out: JAK1 JH2 Binding IC50
T2 construct: JAK1-JH2 domain or TYK2-JH2 domain enzyme in assay buffer
T2 sequence (P23458 583-855 limits assumed): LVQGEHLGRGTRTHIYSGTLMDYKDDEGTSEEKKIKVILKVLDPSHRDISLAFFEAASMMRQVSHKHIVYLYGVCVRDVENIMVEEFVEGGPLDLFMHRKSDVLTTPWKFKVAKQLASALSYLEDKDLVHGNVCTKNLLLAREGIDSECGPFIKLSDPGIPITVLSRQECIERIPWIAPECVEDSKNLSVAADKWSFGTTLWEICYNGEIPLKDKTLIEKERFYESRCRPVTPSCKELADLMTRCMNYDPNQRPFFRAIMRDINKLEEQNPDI
Procedure, shortened: as §1

[5] = Microsomal metabolic stability assay; assay type: in vitro ADME; conditions: human, liver microsomes, pH 7.4, 0.5 mg/mL microsomal protein, 1 µM test article, 2 mM NADPH; for microsomal CLint at 1 µM: read-out: Human LM Clint; for half-life at 1 µM: read-out: Human LM T1/2
Procedure, shortened: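 Test or control compound (1 µM) incubated with microsomes (0.5 mg/mL protein) in 100 mM potassium phosphate pH 7.4, 1.0 mM EDTA at 37°C, started with NADPH regenerating system (2 mM NADPH). Sampled at 0, 5, 15, 30, 45 min, acetonitrile-quenched, LC/MS/MS. T1/2 from ln %remaining vs time slope; CLint = 0.693/T1/2 per mg protein/mL.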

[6] = Kinetic solubility; assay type: physicochemical; conditions: phosphate buffer, pH 7.4, aqueous buffer, kinetic from dmso stock, 100 mM pH 7.4 phosphate buffer, 1% DMSO, room temperature, read-out: Kinetics Solubility_PBS7.4
Description: Aliquots of 8 µL of reference and test compound stock solutions (10 mM/5 mM) are added into 792 µL of 100 mM pH 7.4 phosphate buffer. The final DMSO concentration is 1%. Sample tubes are shaken for 2 hours at 1000 rpm at room temperature. Samples are centrifuged at 12000 rpm for 10 min to precipitate un-dissolved particles. And transfer the supernatants to a new tube or plate. Add 5 µL of samples (no diluted, 10 times diluted, and 100 times diluted) and standard curve samples to 95 µL of ACN containing IS for LC-MS/MS analysis. Kinetic Solubilities Values of Exemplary Compounds

[7] = system: pSTAT1; assay: Phosphorylation inhibition of STAT in human whole blood (IFN-alpha stimulated, flow cytometry); assay type: cell-based; conditions: T-cell, 20 min, IFN-alpha stimulation 20 mins, CD3 T cells, read-out: pSTAT1 inhibition in hWB (IC50)
Procedure, shortened: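 Fresh human whole blood stimulated 20 min with human universal type I IFN-alpha, then fixed, permeabilised and stained for CD3 and pSTAT1 (Y701). pSTAT1 in T cells read by flow cytometry; IC50 from 4-parameter logistic fit.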

[8] = Brain pharmacokinetic studies in rats; assay type: in vivo, Sprague-Dawley rats
Description: Pharmacokinetic profiles of test articles were evaluated in fasted Sprague-Dawley rats. Different kinds of formulations were designed to ensure test articles fully dissolved and wouldn't precipitate in 1:10 SGF or FaSSIF dilution. Typically, Rats were dosed with 3 mg/kg and 5 mg/kg by intravenous injection and oral gavage, respectively. The animal was restrained manually at the designated time points, approximately 150 µL of blood sample was collected via jugular vein for serial bleeding into K2EDTA tubes. The blood samples were maintained in wet ice first and centrifuged to obtain plasma (2000g, 4°C, 5 min) within 30 minutes post sampling. Anesthetizing the rat with the Isoflurane vaporizer to 2%~3% and place its back on the operation table. Spread the animal limbs and pin the limbs on the operation table. Make a cut along the sternum about 4cm long, low enough to expose the sternum's end. Expose the heart and use a 25-gauge needle connected with a 20 mL syringe filled with 20 mL of cold saline to pierce the left ventricle. Maintain the placement of the needle, and slowly push the syringe plunger to wash the brain with saline. The perfusion will be finished within about 2 min and then take the brain out of the body carefully without damaging the tissue. Dry the tissue on filtrate paper, which should be placed on ice, and then weigh the brain tissue and store at -70 °C and analyzed by LC/MS/MS for quantification. PK parameter values, including, but not necessarily limited to, the maximum plasma concentrations (Cmax), and the area under the plasma concentration vs. time curve (AUC) from time zero to 24-hour (AUC0-24h) were determined using WinNonlin program. Table 13. Systemic Pharmacokinetic Parameters in Sprague-Dawley Rats

[9] = system: TYK2 pathway; assay: IFN-γ release in NK92 cells stimulated by IL-12 (ELISA); assay type: cell-based; conditions: IL-12 2.5ng/mL stimulation 15hrs, IFN-γ in supernatant by ELISA
Description: IFN-γ Release in NK92 Cells Stimulated by IL-12
Purpose: To evaluate the inhibition activity of TYK2 inhibitors in NK92 cells on TYK2 pathway through ELISA method.
Procedure: 1) Seeding NK92 cells into 96-well plate, cell density is 1.5E5 cells/well, 100uL/well; 2)Add prepared test articles into indicated wells, 50uL/well, and continue incubate for 1h, at 37°C; 3) After compound treatment, add 50uL/well IL-12 into indicated wells, final concentration of IL-12 is 2.5ng/mL; 4)Incubate cytokine stimulated cells at 37°C for another 15hrs in CO2 incubator; 5) After cytokine stimulation, transfer culture supernatant into a new plate and centrifuge for 5min at 350x g, and detect IFN-γ concentration in the supernatant with ELISA kit; 6) Data analysis with GrapdPad Prism6.0 software. Table 5. IC50 Values of Exemplary Compounds on TYK2 Pathway

SMILES	IC50 [1] [nM]	IC50 [2] [nM]	JAK1/TYK2 selectivity [2]	Papp A→B at 90 min, 10 µM [3] [×10⁻⁶ cm/s]	Papp B→A at 90 min, 10 µM [3] [×10⁻⁶ cm/s]	efflux ratio at 90 min, 10 µM [3]	IC50 [4] [nM]	microsomal CLint at 1 µM [5] [µL/min/mg]	half-life at 1 µM [5] [h]	solubility kinetic at 2 h [6] [µM]	IC50 [7] [nM]	half-life ([8]; Sprague-Dawley, rat, brain, rats, iv, 3 mg/kg, solution) [min]	Kp ([8]; Sprague-Dawley, rat, brain, rats, iv, 3 mg/kg, solution, read-out: Brain AUC/Systemic AUC)	half-life ([8]; Sprague-Dawley, rat, systemic (plasma), rats, iv, 3 mg/kg, solution) [min]	AUC ([8]; Sprague-Dawley, rat, systemic (plasma), rats, iv, 3 mg/kg, solution, read-out: AUC) [ng·h/mL]	AUC ([8]; brain, rats, iv, 3 mg/kg, solution) [ng·h/g]	brain exposure in Rats ([8]; result in words)	IC50 [9] [nM]
[2H]C([2H])([2H])NC(=O)c1cnc(NC(=O)C2CC2)cc1Nc1cnn2ccc(C(C)O)c(OC)c12 (centres unmarked) [Example 23, 6-(Cyclopropanecarboxamido)-4-((5-(1-hydroxyethyl)-4-methoxypyrazolo[1,5-a]pyridin-3-yl)amino)-N-(methyl-d3)nicotinamide]	166	0.185	72.7	0.46	37.6	82.7	13.5	0.17	132									
[2H]C([2H])([2H])NC(=O)c1cnc(Nc2ccc(F)cn2)cc1Nc1cnn2ccc([C@H](O)C(F)(F)F)c(OC)c12 [Example 24, (S)-6-((5-fluoropyridin-2-yl)amino)-4-((4-methoxy-5-(2,2,2-trifluoro-1-hydroxyethyl)pyrazolo[1,5-a]pyridin-3-yl)amino)-N-(methyl-d3)nicotinamide]	3.87	0.066	281.8				18.6	24.6	0.937	10.4 (≈ 5.27 µg/mL)	34.6							
[2H]C([2H])([2H])NC(=O)c1cnc(NC(=O)C2CC2)nc1Nc1cnn2ccc([C@H](O)C(F)(F)F)c(OC)c12 [Example 33, (S)-2-(cyclopropanecarboxamido)-4-((4-methoxy-5-(2,2,2-trifluoro-1-hydroxyethyl)pyrazolo[1,5-a]pyridin-3-yl)amino)-N-(methyl-d3)pyrimidine-5-carboxamide]	16	0.082	418.3	0.39	46.5	121	34.3			59.4 (≈ 28.6 µg/mL)								
COC(=O)c1cnc(NC(=O)C2CC2)cc1Nc1cnn2ccc([C@H](OC)C(F)(F)F)c(OC)c12 [Example 42, Methyl (S)-6-(cyclopropanecarboxamido)-4-((4-methoxy-5-(2,2,2-trifluoro-1-methoxyethyl)pyrazolo[1,5-a]pyridin-3-yl)amino)nicotinate]	104	0.202	391.2				79					15	1.99	20.4	646	1286	good brain exposure	
[2H]C([2H])([2H])NC(=O)c1cnc(NC(=O)C2CC2)cc1Nc1cnn2ccc([C@H](OC(C)=O)C(F)(F)F)c(OC)c12 [Example 43, (S)-1-(3-((2-(cyclopropanecarboxamido)-5-((methyl-d3)carbamoyl)pyridin-4-yl)amino)-4-methoxypyrazolo[1,5-a]pyridin-5-yl)-2,2,2-trifluoroethyl acetate]	20.6	0.175	407.2				71.3			33.3	174							22.6
[2H]C([2H])([2H])NC(=O)c1cnc(NC(=O)C2CC2)cc1Nc1nn(C)c2ccc(C(O)C(F)(F)F)c(OC)c12 (centres unmarked) [Example 49, 6-(Cyclopropanecarboxamido)-4-((4-methoxy-1-methyl-5-(2,2,2-tritluoro-1-hydroxyethyl)-1H-indazol-3-yl)amino)-N-(methyl-d3)nicotinamide]	0.729	0.136	30.13				4.1	15.7	1.47	83 (≈ 41.1 µg/mL)	27.9							
CNC(=O)c1cnc(NC(=O)C2CC2)cc1Nc1nn(C)c2cccc(OC)c12 [Example 100, 6-(Cyclopropanecarboxamido)-4-((4-methoxy-1-methyl-1H-indazol-3-yl)amino)-N-methylnicotinamide]	505	0.97	116.4				113											86.8
CCC(=O)c1cnc(NC(=O)C2CC2)cc1Nc1ccn2nccc2c1OC [Example 195, N-[4-[(4-Methoxypyrazolo[1,5-a]pyridin-5-yl)amino]-5-propanoyl-2-pyridyl]cyclopropanecarboxamide, reference compound]	329	2.96	22.68				67.1				> 5000							1500
CCC(=O)c1cnc(NC(=O)C2CC2)cc1Nc1ccc2cn[nH]c2c1OC [Example 196, N-(4-((7-Methoxy-1H-indazol-6-yl)amino)-5-propionylpyridin-2-yl)cyclopropanecarboxamide, reference compound]		3.93	8.04				31.6				> 10000							923
CCC(=O)c1cnc(NC(=O)C2CC2)cc1Nc1ccc2[nH]cnc2c1OC [Example 197, N-[4-[(4-Methoxy-1H-benzimidazol-5-yl)amino]-5-propanoyl-2-pyridyl] cyclopropanecarboxamide, reference compound]	426	2.72	6.41				17.4											515
